Assay results published in paper PMC9101373, “Design of DNA Intercalators Based on 4-Carboranyl-1,8-Naphthalimides: Investigation of Their DNA-Binding Ability and Anticancer Activity” (International Journal of Molecular Sciences, 2022).

Key:
calf thymus DNA (ct-DNA) = test: Melting temperature (Tm) measurements of ct-DNA, thermal denaturation; format: binding; conditions: for ΔTm ct-DNA: r = [compound]/[ct-DNA] = 0.3, pH 7.0, 20 mM cacodylate buffer, Tm of ct-DNA alone 74 °C; for effect on thermal stability of ct-DNA (in words): thermal melting experiments
Method: The melting temperature (Tm) of DNA is defined as the temperature at which 50% of the DNA is in form of single strands forming randomly coiled structures. DNA melting is measured by the absorbance of UV light (260 nm) by the DNA solution, where the amount of UV light absorbed is proportional to the fraction of non-bonded base pairs. The majority of DNA-binding small molecules known thus far stabilize duplex DNA against heat denaturation. A high, drug-induced increase in the Tm of DNA is generally viewed as an excellent criterion to select DNA ligands and is a common feature of several anticancer drugs such as intercalators (a significant increase in Tm = 3–8 °C is observed for strong intercalation) and alkylators. The reverse situation (destabilization of DNA to facilitate its denaturation) may be an attractive option to identify therapeutic agents acting on the DNA structure.
Our study conducted Tm measurement to estimate the impact of 1,8-naphthalimides bearing the carborane cluster on DNA stabilization (Table 1, Figures S249–S253, ESI).
The measurements were performed by adding aliquots of DMSO stock solution of the tested compounds to the buffer solution (pH 7.0, 20 mM, cacodylate buffer, DMSO content of the final solution = 0.24–0.36%). The Tm curves were collected at r = 0.3 (r = [compound]/[ct-DNA]) to assure the dominant binding mode. Thermal melting curves were determined by following the absorption change at 260 nm as a function of temperature by using a GBC Cintra10 UV–vis spectrometer (Dandenong, Australia) equipped with a GBC Thermocell Peltier Power Supply (Dandenong, Australia) using a 1 cm path length cell. The absorbance of the samples was monitored at 260 nm from 30 to 90 °C (95 °C for compounds 54–61) with a heating rate of 1 °C/min. Tm values are the midpoints or the transition curves determined from the maximum of the first derivative. The ΔTm values were calculated by subtracting the Tm of the free nucleic acid from the Tm of the sample. Every Tm value reported in this study was average at least three measurements. The error in Tm was 0.5 °C.

human topoisomerase IIα = molecular target: T1, human topoisomerase IIα (Homo sapiens, UniProt P11388); test: Human topoisomerase IIα relaxation assay; format: biochemical; conditions: for IC50: supercoiled pBR322, concentration range 0.1–100 µM, read-out: IC50, compound concentration required to inhibit the activity of this enzyme by 50%
T1 construct: purchased Inspiralis (Norwich, UK)
Method: Therefore, we subjected these compounds to further detailed analyses of inhibitory potential within the concentration range of 0.1–100 µM (Figure S301, ESI) to calculate IC50 values. IC50 refers to the compound concentration (µM) required to inhibit the activity of the topoisomerase enzyme by 50%.
The Human Topoisomerase II-alpha Relaxation Assay Kit was purchased from Inspiralis (Norwich, UK). The Topo IIα inhibition assay was performed as described by the manufacturer. […] Next, TopoIIα (1 U) was added, and the reaction mixture was incubated at 37 °C for an additional 45 min. The reaction was terminated by addition of the STEB buffer (40 % (w/v) sucrose, Tris-HCl (100 mM, pH 8), EDTA (1 mM), bromophenol blue (0.5 mg/mL)). The products were analyzed by electrophoresis using agarose gel (1%) in TAE buffer at 70 V for 2 h, followed by ethidium bromide staining. […] The percentage of Topo-II alpha activity inhibition was calculated by densitometric quantification (Quantity One software, Bio-Rad). The occurrence of a band representing supercoiled DNA on an agarose gel indicated the inhibition of enzyme activity.

HepG2 cells = test: In vitro cytotoxic activity, MTT assay; format: cell-based, human; conditions: 24 h treatment, read-out: IC50, compound concentration required to inhibit cell growth by 50%
Method: The obtained 1,8-naphthalimide–carborane conjugates were investigated for their in vitro antitumor activity by examining their cytotoxic effects using the MTT tetrazolium dye assay against the human cancer cell line HepG2 established from hepatocellular carcinoma. IC50 refers to the drug concentration (µM) required to inhibit cell growth by 50%.
The cytotoxic properties of the synthesized compounds were evaluated using the human hepatocellular carcinoma cell line HepG2 established from hepatocellular carcinoma. The HepG2 cell line was purchased from ECACC (Salisbury, UK). Cells were grown in EMEM medium (Corning®) supplemented with 10% heat-inactivated fetal bovine serum (FBS) (Corning®) and antibiotics (Corning®), at 37 °C in a 5% CO2 atmosphere. Upon reaching 80–90% confluency, cells were detached with the trypsin (Corning®) and transferred into 96-well microplates at a density of 12 × 10^3. After overnight incubation at 37 °C in a humidified atmosphere containing 5% CO2, the cells were treated for the next 24 h with compounds. The stock solution of each compound was prepared in DMSO at 10 mM. The cytotoxicity was evaluated by the MTT assay. […] Subsequently, the medium was aspirated and replaced with 3-(4,5-dimethylthiazol-2-yl)-2,5-diphenyltetrazolium bromide (MTT) dye solution (50 µL, 0.5 mg/mL). After 3 h incubation, the resulting MTT formazan crystals were dissolved in DMSO (100 µL). To ensure the complete dissolution of formazan, the plates were shaken on an orbital microplate shaker at 1000 rpm for 15 min (Thermoshaker NeoLab 7–0055, Bionovo, Legnica, Poland). The optical density of each well was then measured on a VICTOR Nivo multimode plate reader at a wavelength of 570 nm. Each experiment consisted of 6 replications of each concentration, and each experiment was repeated three times independently. The results were calculated as a percentage of control group viability. The IC50 values were determined using a non-linear regression from the plot of % viability against log dose of compounds by using GraphPad Prism 6.0 software (GraphPad, San Diego, CA, USA).

T1 sequence (P11388 whole entry): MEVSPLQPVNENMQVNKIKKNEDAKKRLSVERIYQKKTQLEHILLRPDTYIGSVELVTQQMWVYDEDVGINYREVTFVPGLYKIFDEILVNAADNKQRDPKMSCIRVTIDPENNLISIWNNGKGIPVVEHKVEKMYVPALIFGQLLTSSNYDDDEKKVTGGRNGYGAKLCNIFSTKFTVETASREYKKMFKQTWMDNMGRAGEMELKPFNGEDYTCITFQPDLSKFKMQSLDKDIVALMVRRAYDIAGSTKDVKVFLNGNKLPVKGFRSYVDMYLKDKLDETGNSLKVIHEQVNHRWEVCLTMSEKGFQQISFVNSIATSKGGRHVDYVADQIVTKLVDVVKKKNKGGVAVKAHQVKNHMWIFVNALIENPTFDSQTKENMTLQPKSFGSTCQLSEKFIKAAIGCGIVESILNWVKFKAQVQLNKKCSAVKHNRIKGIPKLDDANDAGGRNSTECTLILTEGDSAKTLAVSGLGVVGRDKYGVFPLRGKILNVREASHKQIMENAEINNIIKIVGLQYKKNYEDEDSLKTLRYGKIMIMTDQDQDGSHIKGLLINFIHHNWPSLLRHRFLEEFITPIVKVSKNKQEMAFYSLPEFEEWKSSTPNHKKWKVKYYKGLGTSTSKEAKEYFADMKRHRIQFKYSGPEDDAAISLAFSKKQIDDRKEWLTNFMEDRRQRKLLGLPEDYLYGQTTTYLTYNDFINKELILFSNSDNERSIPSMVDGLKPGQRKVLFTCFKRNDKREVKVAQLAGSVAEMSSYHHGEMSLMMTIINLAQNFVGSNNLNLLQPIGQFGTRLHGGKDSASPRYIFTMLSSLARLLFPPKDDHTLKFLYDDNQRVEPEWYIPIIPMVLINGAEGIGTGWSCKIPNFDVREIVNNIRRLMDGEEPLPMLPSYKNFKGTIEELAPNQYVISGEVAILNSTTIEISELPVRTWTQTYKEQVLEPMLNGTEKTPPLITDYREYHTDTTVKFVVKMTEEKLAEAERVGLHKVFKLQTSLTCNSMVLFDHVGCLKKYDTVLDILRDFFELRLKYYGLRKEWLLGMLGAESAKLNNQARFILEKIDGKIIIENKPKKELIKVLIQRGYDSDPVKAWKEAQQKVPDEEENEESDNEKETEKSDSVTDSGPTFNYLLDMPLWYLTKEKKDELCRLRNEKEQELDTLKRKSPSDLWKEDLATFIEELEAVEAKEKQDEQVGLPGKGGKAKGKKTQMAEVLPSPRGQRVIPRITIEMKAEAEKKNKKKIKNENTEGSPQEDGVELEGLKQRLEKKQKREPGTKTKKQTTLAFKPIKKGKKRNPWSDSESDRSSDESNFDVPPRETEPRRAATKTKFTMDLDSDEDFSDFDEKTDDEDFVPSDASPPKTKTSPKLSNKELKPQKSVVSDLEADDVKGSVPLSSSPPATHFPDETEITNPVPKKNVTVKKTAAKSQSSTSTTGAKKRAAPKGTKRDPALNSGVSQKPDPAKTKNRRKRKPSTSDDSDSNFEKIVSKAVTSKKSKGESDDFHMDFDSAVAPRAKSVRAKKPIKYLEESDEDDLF

Substance | ΔTm ct-DNA (calf thymus DNA (ct-DNA)) [°C] | effect on thermal stability of ct-DNA (in words) (calf thymus DNA (ct-DNA)) | IC50 (human topoisomerase IIα) [µM] | IC50 (HepG2 cells) [µM] | fold less active than mitonafide (Topo IIα IC50) (human topoisomerase IIα) [fold]
N-[2-(Dimethylamino)ethyl]-4-[(2-(3-(1,7-dicarba-closo-dodecaborane-1-yl)propanamido)ethyl)amino]-1,8-naphthalimide [Compound 37] | 2.00 | better DNA stabilization | 7.49 | 10.5 ± 0.53 | 
N-[2-(Dimethylamino)ethyl]-4-[(6-(3-(1,7-dicarba-closo-dodecaborane-1-yl)propanamido)hexyl)amino]-1,8-naphthalimide [Compound 41] | −1.33 | destabilization |  | 11.9 ± 0.92 | 
N-[2-(N-Pyrrolidinyl)ethyl]-4-{1-[3-(1,2-dicarba-closo-dodecaborane-1-yl)propyl]-1H-1,2,3-triazol-4-yl}-1,8-naphthalimide [Compound 9] | 0.67 |  |  | 29.6 ± 1.89 | 
N-[2-(N-Pyrrolidinyl)ethyl]-4-[3-(1,7-dicarba-closo-dodecaborane-1-yl)propoxy]-1,8-naphthalimide [Compound 27] | 0.33 |  |  | 4.07 ± 1.19 | 
N-[2-(Dimethylamino)ethyl]-4-{1-[3-(1,2-dicarba-closo-dodecaborane-1-yl)propyl]-1H-1,2,3-triazol-4-yl}methoxy-1,8-naphthalimide [Compound 16] | 2.00 | better DNA stabilization |  | 8.17 ± 3.72 | 
N-[2-(Dimethylamino)ethyl]-4-{1-[3-(1,7-dicarba-closo-dodecaborane-1-yl)propyl]-1H-1,2,3-triazol-4-yl}-1,8-naphthalimide [Compound 10] | 0.67 |  |  | 5.35 ± 1.9 | 
4-{1-[3-(1,2-Dicarba-closo-dodecaborane-1-yl)propyl]-1H-1,2,3-triazol-4-yl}methoxy-1,8-naphthalic anhydride [Compound 14] | 0.33 |  |  | 34.1 ± 2.33 | 
N-[2-(Dimethylamino)ethyl]-4-[3-(1,7-dicarba-closo-dodecaborane-1-yl)propoxy]-1,8-naphthalimide [Compound 26] | 1.33 | better DNA stabilization |  | 4.89 ± 2.59 | 
N-[2-(Dimethylamino)ethyl]-4-{1-[3-(1,7-dicarba-closo-dodecaborane-1-yl)propyl]-1H-1,2,3-triazol-4-yl}methoxy-1,8-naphthalimide [Compound 18] | 0.37 |  |  | 5.8 ± 0.23 | 
4-{1-[3-(1,7-Dicarba-closo-dodecaborane-1-yl)propyl]-1H-1,2,3-triazol-4-yl}methoxy-1,8-naphthalic anhydride [Compound 15] | 0.00 |  | 61.6 | 38.1 ± 2.85 | 12
N-[2-(Dimethylamino)ethyl]-4-{1-[3-(1,2-dicarba-closo-dodecaborane-1-yl)propyl]-1H-1,2,3-triazol-4-yl}-1,8-naphthalimide [Compound 8] | 0.33 |  | 0.58 | 9.65 ± 1.02 | 
N-[2-(N-Pyrrolidinyl)ethyl]-4-[(6-(3-(1,2-dicarba-closo-dodecaborane-1-yl)propanamido)hexyl)amino]-1,8-naphthalimide [Compound 43] | 1.00 |  |  | 40 ± 3.89 | 
4-{1-[3-(1,2-Dicarba-closo-dodecaborane-1-yl)propyl]-1H-1,2,3-triazol-4-yl}-1,8-naphthalic anhydride [Compound 6] | −0.33 | destabilization | 7.73 | 71.2 ± 1.78 | 
N-[2-(N-Pyrrolidinyl)ethyl]-4-[3-(1,2-dicarba-closo-dodecaborane-1-yl)propoxy]-1,8-naphthalimide [Compound 25] | 0.33 |  |  | 15.2 ± 2.02 | 
N-[2-(N-Pyrrolidinyl)ethyl]-4-[(6-(3-(1,2-dicarba-closo-dodecaborane-1-yl)propanamido)hexyl)amino]-1,8-naphthalimide [Compound 42] | 0.67 |  |  | 21.1 ± 3.34 | 
4-[3-(1,7-Dicarba-closo-dodecaborane-1-yl)propoxy]-1,8-naphthalic anhydride [Compound 23] | −0.33 | destabilization |  | 109 ± 3.78 | 
4-[3-(1,2-Dicarba-closo-dodecaborane-1-yl)propoxy]-1,8-naphthalic anhydride [Compound 22] | −1.00 | destabilization |  | 28.7 ± 3.84 | 
N-[2-(N-Pyrrolidinyl)ethyl]-4-[(2-(3-(1,7-dicarba-closo-dodecaborane-1-yl)propanamido)ethyl)amino]-1,8-naphthalimide [Compound 39] | 1.00 |  |  | 9.85 ± 0.59 | 
N-[2-(Dimethylamino)ethyl]-4-[(6-(3-(1,2-dicarba-closo-dodecaborane-1-yl)propanamido)hexyl)amino]-1,8-naphthalimide [Compound 40] | 0.67 |  |  | 12.2 ± 0.44 | 
N-[2-(Dimethylamino)ethyl]-4-[3-(1,2-dicarba-closo-dodecaborane-1-yl)propoxy]-1,8-naphthalimide [Compound 24] | 1.33 | better DNA stabilization |  | 11 ± 0.66 | 
